Measured values from ChEMBL document CHEMBL4715703, “Engineering of a Novel Simplified Human Insulin-Like Peptide 5 Agonist” (J Med Chem, 2016).
Calls of active or inactive are those of the source. The calls are words filed in the database; no cut-off is given here. Where a SMILES comes first, the peptide text is derived from it. Bridges are numbered along the chain shown (N, C = ends). Roman numbers before positions name the chains, in order.

Legend:
[1] = target: T1, Relaxin-3 receptor 2 (Homo sapiens, UniProt Q8TDU9); assay: Displacement of europium-labeled Eu(A)-mINSL5 from human RXFP4 expressed in CHO-K1 cells; format: cell-based
[2] = target: T1, Relaxin-3 receptor 2; assay: Agonist activity at human RXFP4 expressed in CHO-K1 cells assessed as reduction in forskolin-induced cAMP production by pCRE beta-galactosidase reporter assay; format: functional, cell-based
[3] = target: T1, Relaxin-3 receptor 2; assay: Agonist activity at human RXFP4 expressed in CHO-K1 cells assessed as induction of ERK1/2 phosphorylation incubated for 5 mins by Alpha-screen sure-fire assay; format: cell-based; conditions: filed as agonist

T1 sequence (Q8TDU9 whole entry): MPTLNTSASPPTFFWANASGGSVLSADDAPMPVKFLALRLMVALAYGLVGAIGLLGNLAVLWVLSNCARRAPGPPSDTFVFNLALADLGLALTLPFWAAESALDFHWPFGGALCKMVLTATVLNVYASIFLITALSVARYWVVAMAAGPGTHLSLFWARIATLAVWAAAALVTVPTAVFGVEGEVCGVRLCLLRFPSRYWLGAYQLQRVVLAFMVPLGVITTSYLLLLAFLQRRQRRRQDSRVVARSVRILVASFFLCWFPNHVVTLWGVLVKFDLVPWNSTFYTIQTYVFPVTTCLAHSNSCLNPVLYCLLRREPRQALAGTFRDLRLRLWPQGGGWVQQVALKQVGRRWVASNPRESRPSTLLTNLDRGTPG

Ki [1] [nM]	EC50 [2] [nM]	Activity [3]	Structure (SMILES)
33.1	4.57	Active	CC[C@H](C)[C@@H]1NC(=O)[C@H](Cc2ccc(O)cc2)NC(=O)[C@H]([C@@H](C)CC)NC(=O)[C@H](C(C)C)NC(=O)[C@H]([C@@H](C)O)NC(=O)[C@H](CCCNC(=N)N)NC(=O)[C@H]([C@@H](C)CC)NC(=O)[C@H](Cc2ccc(O)cc2)NC(=O)[C@H](CCC(=O)O)NC(=O)[C@H](CC(C)C)NC(=O)CNC(=O)[C@@H](NC(=O)[C@H](CC(C)C)NC(=O)[C@H](CCCNC(=N)N)NC(=O)[C@@H](NC(=O)[C@H](CO)NC(=O)[C@H](CCC(=O)O)NC(=O)[C@@H](N)CCCCN)C(C)C)CSSC[C@@H]2NC(=O)[C@@H](NC(=O)[C@H](CC(C)C)NC(=O)[C@@H](NC(=O)[C@H](CCC(N)=O)NC(=O)[C@H](CC(C)C)NC(=O)[C@H](CC(=O)O)NC(=O)C3CCC(=O)N3)[C@@H](C)O)CSSC[C@H](NC(=O)CNC(=O)[C@H](CCC(=O)O)NC(=O)[C@H]([C@@H](C)O)NC2=O)C(=O)N[C@@H](CO)C(=O)N[C@@H](CCSC)C(=O)N[C@@H]([C@@H](C)O)C(=O)N[C@@H](CC(=O)O)C(=O)N[C@@H](CC(C)C)C(=O)N[C@@H](CO)C(=O)N[C@@H](C)C(=O)N[C@@H](CC(C)C)C(=O)N[C@H](C(=O)O)CSSC[C@@H](C(=O)N[C@@H](C)C(=O)N[C@@H](CO)C(=O)N[C@@H](CO)C(=O)N[C@@H](CCCNC(=N)N)C(=O)N[C@@H](Cc2c[nH]c3ccccc23)C(=O)O)NC1=O (stereo partly specified)
29.5	20.9	Active	CC[C@H](C)[C@@H]1NC(=O)[C@H](Cc2ccc(O)cc2)NC(=O)[C@H]([C@@H](C)CC)NC(=O)[C@H](C(C)C)NC(=O)[C@H]([C@@H](C)O)NC(=O)[C@H](CCCNC(=N)N)NC(=O)[C@H]([C@@H](C)CC)NC(=O)[C@H](Cc2ccc(O)cc2)NC(=O)[C@H](CCC(=O)O)NC(=O)[C@H](CC(C)C)NC(=O)CNC(=O)[C@@H](NC(=O)[C@H](CC(C)C)NC(=O)[C@H](CCCNC(=N)N)NC(=O)[C@@H](NC(=O)[C@H](CO)NC(=O)[C@H](CCC(=O)O)NC(=O)[C@@H](N)CCCCN)C(C)C)CSSC[C@H](N)C(=O)N[C@@H]([C@@H](C)O)C(=O)N[C@@H](CC(=O)O)C(=O)NCC(=O)N[C@@H](C)C(=O)N[C@@H](CO)C(=O)N[C@@H](CCSC)C(=O)N[C@@H](CCCCN)C(=O)N[C@@H](CC(=O)O)C(=O)N[C@@H](CC(C)C)C(=O)N[C@@H](CO)C(=O)N[C@@H](C)C(=O)N[C@@H](CC(C)C)C(=O)N[C@H](C(=O)O)CSSC[C@@H](C(=O)N[C@@H](C)C(=O)N[C@@H](CO)C(=O)N[C@@H](CO)C(=O)N[C@@H](CCCNC(=N)N)C(=O)N[C@@H](Cc2c[nH]c3ccccc23)C(=O)O)NC1=O (I: H-KESVRLCGLEYIRTVIYICASSRW-OH / II: H-CTDGASMKDLSALC-OH; disulfide I:7-II:1, I:19-II:14)
